# PubChem BioAssay (NCI)
#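 Following 48 hours of exposure in 96-well plates, responses at five concentrations were used to interpolate endpoints linearly. Abbreviation: GI50, concentration required for 50% inhibition of growth. TGI marks complete inhibition of growth.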
# Legend:
# Assay in all cases: NCI anticancer screen, dose series, 48 h
# SK-OV-3 ovarian = tested on: SK-OV-3 ovarian
# MDA-MB-231 breast = tested on: MDA-MB-231 breast
# COLO 205 colon = tested on: COLO 205 colon
# U251 CNS = tested on: U251 CNS
# SK-MEL-28 melanoma = tested on: SK-MEL-28 melanoma
# UACC-62 melanoma = tested on: UACC-62 melanoma
# SN12C renal = tested on: SN12C renal
# NCI-H23 lung = tested on: NCI-H23 lung
# SF-268 CNS = tested on: SF-268 CNS
# KM12 colon = tested on: KM12 colon
# OVCAR-5 ovarian = tested on: OVCAR-5 ovarian
# K-562 leukemia = tested on: K-562 leukemia
# MOLT-4 leukemia = tested on: MOLT-4 leukemia
# SW-620 colon = tested on: SW-620 colon
# DU-145 prostate = tested on: DU-145 prostate
# SNB-75 CNS = tested on: SNB-75 CNS
# IGROV1 ovarian = tested on: IGROV1 ovarian
# UACC-257 melanoma = tested on: UACC-257 melanoma
# RXF 393 renal = tested on: RXF 393 renal
# SK-MEL-5 melanoma = tested on: SK-MEL-5 melanoma
# PC-3 prostate = tested on: PC-3 prostate
# NCI/ADR-RES ovarian = tested on: NCI/ADR-RES ovarian
# UO-31 renal = tested on: UO-31 renal
# HL-60(TB) leukemia = tested on: HL-60(TB) leukemia
# HCT-116 colon = tested on: HCT-116 colon
# HS 578T breast = tested on: HS 578T breast
# NCI-H226 lung = tested on: NCI-H226 lung
# SNB-19 CNS = tested on: SNB-19 CNS
# 786-0 renal = tested on: 786-0 renal
# LOX IMVI melanoma = tested on: LOX IMVI melanoma
# ACHN renal = tested on: ACHN renal
# A549 NSCLC = tested on: A549 NSCLC
# SF-539 CNS = tested on: SF-539 CNS
# OVCAR-8 ovarian = tested on: OVCAR-8 ovarian
# TK-10 renal = tested on: TK-10 renal
# A498 renal = tested on: A498 renal
# BT-549 breast = tested on: BT-549 breast
# SK-MEL-2 melanoma = tested on: SK-MEL-2 melanoma
# HCT-15 colon = tested on: HCT-15 colon
# MCF7 breast = tested on: MCF7 breast
# EKVX NSCLC = tested on: EKVX NSCLC
# HT29 colon = tested on: HT29 colon
# NCI-H460 lung = tested on: NCI-H460 lung
# RPMI-8226 leukemia = tested on: RPMI-8226 leukemia
# HOP-62 NSCLC = tested on: HOP-62 NSCLC
# M14 melanoma = tested on: M14 melanoma
# HOP-92 NSCLC = tested on: HOP-92 NSCLC
# CAKI-1 renal = tested on: CAKI-1 renal
# HCC-2998 colon = tested on: HCC-2998 colon
# MALME-3M melanoma = tested on: MALME-3M melanoma
# MDA-MB-435 = tested on: MDA-MB-435
# SF-295 CNS = tested on: SF-295 CNS
# CCRF-CEM leukemia = tested on: CCRF-CEM leukemia
# NCI-H522 lung = tested on: NCI-H522 lung
# OVCAR-4 ovarian = tested on: OVCAR-4 ovarian
compound,measurement,setting,value
COc1ccc2c(c1)SC1=NNC(Cl)C(=O)N12 (stereo not given),GI50,SK-OV-3 ovarian,33 µM
same,TGI,SK-OV-3 ovarian,> 100 µM
same,GI50,MDA-MB-231 breast,15.3 µM
same,TGI,MDA-MB-231 breast,35.6 µM
same,GI50,COLO 205 colon,16.7 µM
same,TGI,COLO 205 colon,44.3 µM
same,GI50,U251 CNS,18.9 µM
same,TGI,U251 CNS,45.1 µM
same,GI50,SK-MEL-28 melanoma,13.7 µM
same,TGI,SK-MEL-28 melanoma,35.2 µM
same,GI50,UACC-62 melanoma,15.6 µM
same,TGI,UACC-62 melanoma,36 µM
same,GI50,SN12C renal,16.5 µM
same,TGI,SN12C renal,37.3 µM
same,GI50,NCI-H23 lung,18 µM
same,TGI,NCI-H23 lung,39.6 µM
same,GI50,SF-268 CNS,24.2 µM
same,TGI,SF-268 CNS,62.1 µM
same,GI50,KM12 colon,20.7 µM
same,TGI,KM12 colon,48 µM
same,GI50,OVCAR-5 ovarian,27.9 µM
same,TGI,OVCAR-5 ovarian,94.1 µM
same,GI50,K-562 leukemia,35.3 µM
same,TGI,K-562 leukemia,> 100 µM
same,GI50,MOLT-4 leukemia,31.2 µM
same,TGI,MOLT-4 leukemia,> 100 µM
same,GI50,SW-620 colon,21.8 µM
same,TGI,SW-620 colon,65.7 µM
same,GI50,DU-145 prostate,12.8 µM
same,TGI,DU-145 prostate,30.3 µM
same,GI50,SNB-75 CNS,30.3 µM
same,TGI,SNB-75 CNS,83.5 µM
same,GI50,IGROV1 ovarian,25.2 µM
same,TGI,IGROV1 ovarian,> 100 µM
same,GI50,UACC-257 melanoma,18.2 µM
same,TGI,UACC-257 melanoma,42.5 µM
same,GI50,RXF 393 renal,18.4 µM
same,TGI,RXF 393 renal,59.1 µM
same,GI50,SK-MEL-5 melanoma,15.6 µM
same,TGI,SK-MEL-5 melanoma,34 µM
same,GI50,PC-3 prostate,37 µM
same,TGI,PC-3 prostate,> 100 µM
same,GI50,NCI/ADR-RES ovarian,19.8 µM
same,TGI,NCI/ADR-RES ovarian,47.6 µM
same,GI50,UO-31 renal,5.9 µM
same,TGI,UO-31 renal,> 100 µM
same,GI50,HL-60(TB) leukemia,33.9 µM
same,TGI,HL-60(TB) leukemia,> 100 µM
same,GI50,HCT-116 colon,24 µM
same,TGI,HCT-116 colon,87.3 µM
same,GI50,HS 578T breast,40.4 µM
same,TGI,HS 578T breast,> 100 µM
same,GI50,NCI-H226 lung,16.2 µM
same,TGI,NCI-H226 lung,64.3 µM
same,GI50,SNB-19 CNS,38.4 µM
same,TGI,SNB-19 CNS,> 100 µM
same,GI50,786-0 renal,33.2 µM
same,TGI,786-0 renal,> 100 µM
same,GI50,LOX IMVI melanoma,16 µM
same,TGI,LOX IMVI melanoma,37.4 µM
same,GI50,ACHN renal,12.4 µM
same,TGI,ACHN renal,26.3 µM
same,GI50,A549 NSCLC,38.1 µM
same,TGI,A549 NSCLC,> 100 µM
same,GI50,SF-539 CNS,15.6 µM
same,TGI,SF-539 CNS,37.8 µM
same,GI50,OVCAR-8 ovarian,21.5 µM
same,TGI,OVCAR-8 ovarian,54.2 µM
same,GI50,TK-10 renal,26.6 µM
same,TGI,TK-10 renal,81.1 µM
same,GI50,A498 renal,26.1 µM
same,TGI,A498 renal,53.3 µM
same,GI50,BT-549 breast,17.2 µM
same,TGI,BT-549 breast,40.6 µM
same,GI50,SK-MEL-2 melanoma,42.1 µM
same,TGI,SK-MEL-2 melanoma,> 100 µM
same,GI50,HCT-15 colon,15.8 µM
same,TGI,HCT-15 colon,38.4 µM
same,GI50,MCF7 breast,24.5 µM
same,TGI,MCF7 breast,> 100 µM
same,GI50,EKVX NSCLC,10.5 µM
same,TGI,EKVX NSCLC,29.1 µM
same,GI50,HT29 colon,11.8 µM
same,TGI,HT29 colon,35.1 µM
same,GI50,NCI-H460 lung,29.5 µM
same,TGI,NCI-H460 lung,> 100 µM
same,GI50,RPMI-8226 leukemia,18.2 µM
same,TGI,RPMI-8226 leukemia,54.1 µM
same,GI50,HOP-62 NSCLC,45.5 µM
same,TGI,HOP-62 NSCLC,> 100 µM
same,GI50,M14 melanoma,17.3 µM
same,TGI,M14 melanoma,48.4 µM
same,GI50,HOP-92 NSCLC,20.1 µM
same,TGI,HOP-92 NSCLC,56.2 µM
Cc1ccc(-c2c(C#N)c(-c3ccccc3)c(C#N)c(=O)n2NS(=O)(=O)c2ccc(C)cc2)cc1,TGI,SK-OV-3 ovarian,> 100 µM
same,TGI,MDA-MB-231 breast,> 100 µM
same,TGI,COLO 205 colon,> 100 µM
same,TGI,U251 CNS,> 100 µM
same,TGI,SK-MEL-28 melanoma,> 100 µM
same,TGI,UACC-62 melanoma,> 100 µM
same,TGI,SN12C renal,> 100 µM
same,TGI,CAKI-1 renal,> 100 µM
same,TGI,SF-268 CNS,> 100 µM
same,TGI,KM12 colon,> 100 µM
same,TGI,OVCAR-5 ovarian,> 100 µM
same,TGI,K-562 leukemia,> 100 µM
same,TGI,MOLT-4 leukemia,41.1 µM
same,TGI,SW-620 colon,> 100 µM
same,TGI,SNB-75 CNS,> 100 µM
same,TGI,IGROV1 ovarian,> 100 µM
same,TGI,UACC-257 melanoma,> 100 µM
same,TGI,RXF 393 renal,> 100 µM
same,TGI,SK-MEL-5 melanoma,31.9 µM
same,TGI,PC-3 prostate,> 100 µM
same,TGI,NCI/ADR-RES ovarian,> 100 µM
same,TGI,HCC-2998 colon,> 100 µM
same,TGI,HCT-116 colon,> 100 µM
same,TGI,MALME-3M melanoma,> 100 µM
same,TGI,HS 578T breast,> 100 µM
same,TGI,MDA-MB-435,> 100 µM
same,TGI,NCI-H226 lung,> 100 µM
same,TGI,SNB-19 CNS,33.5 µM
same,TGI,786-0 renal,> 100 µM
same,TGI,LOX IMVI melanoma,> 100 µM
same,TGI,ACHN renal,> 100 µM
same,TGI,A549 NSCLC,> 100 µM
same,TGI,SF-539 CNS,> 100 µM
same,TGI,OVCAR-8 ovarian,> 100 µM
same,TGI,TK-10 renal,> 100 µM
same,TGI,A498 renal,> 100 µM
same,TGI,SF-295 CNS,> 100 µM
same,TGI,BT-549 breast,> 100 µM
same,TGI,SK-MEL-2 melanoma,> 100 µM
same,TGI,HCT-15 colon,> 100 µM
same,TGI,MCF7 breast,> 100 µM
same,TGI,EKVX NSCLC,> 100 µM
same,TGI,HT29 colon,> 100 µM
same,TGI,CCRF-CEM leukemia,89.7 µM
same,TGI,NCI-H460 lung,> 100 µM
same,TGI,RPMI-8226 leukemia,8.79 µM
same,TGI,HOP-62 NSCLC,> 100 µM
same,TGI,NCI-H522 lung,> 100 µM
same,TGI,M14 melanoma,> 100 µM
same,TGI,HOP-92 NSCLC,> 100 µM
same,TGI,OVCAR-4 ovarian,> 100 µM
